Experimental findings from patent US9675563B2, “Method for adjunctive treatment of cancer metastasis by using lycogen” (ASIA-PACIFIC BIOTECH DEVELOPING, INC., priority 2015, dated 2017) are described below.

Common to all, as to assay type: cell-based, human
Experiment [1] relates to HUVEC cells. Kind of experiment: In vitro angiogenesis assay (H2O2-induced tubeformation in matrigel). The conditions noted are these: 5-FU alone, 6 hours after treatment. On the procedure: (§1) The in vitro angiogenesis assay was a model test used for studying anti-angiogenic nutrient or drugs, and the assay was highly convenient and fast. […] H2O2 was used to induce tubeformation in matrigel to evaluate the effect of Lycogen on the index of angiogenesis. HUVEC cells were dissolved in 10% serum-containing culture media, and then HUVEC cells were seeded into matrigel pre-coated 24-well plates in a density of […] per well. Except for the control group HUVEC cells in all other groups were treated with solvent vehicle, 5-FU, 5-FU plus 10 μM Lycogen, 5-FU plus 30 μM Lycogen, and 5-FU plus 50 μM of Lycogen, respectively. Each assay under the same experimental condition was performed in duplicate and this experiment was repeated twice. Phase contrast photomicrographs were taken by a phase contrast microscope with 100× magnification at 6 hours after the treatment.

In experiment [2] the test system is HUVEC cells. Description: Cell migration analysis under the angiogenesis assay conditions. The conditions noted are these: 5-FU alone. The procedure:
as §1
In another example, the effect of Lycogen on cell migration was analyzed under the same conditions of the aforementioned angiogenesis analysis.

For experiment [3], the system named is EA.hy926 cell line. Description: EA.hy926 cell migration analysis (migration areas). The conditions noted are these: 25 μg/mL 5-FU, 24 hours. The procedure:
In another example, the effect of Lycogen on cell migration in human umbilical vein endothelial cell line (EA.hy926 cell line) was analyzed. The cell line was treated with different concentrations of Lycogen (0, 2, 5, and 10 μM) or 25 μg/mL 5-FU, and the EA.hy926 cell migration was analyzed 24 hours after treatments to calculate the migration areas.

Experiment [4] concerns EA.hy926 cell line. Description: Cancer cell invasion assay (Matrigel, fluorescent microscope). The conditions noted are these: 25 μg/mL 5-FU, 24 hours, compared to 0 μg/ml group. The procedure:
In one embodiment, the EA.hy926 cell line was used to analyze the ability of Lycogen on inhibiting cancer cell invasion. EA.hy926 cell line was treated with various concentration of Lycogen (0, 2, 5, and 10 μM) or 25 μg/mL 5-FU. Twenty-four hours after treatment, the Matrigel was used to analyze the cell invasion, and fluorescent microscope was used to observe the cancer cell invasion.
Cells were cultured on the plate, which was covered by a semipermeable membrane, to mimic the condition of cell invasion in vivo. The basal membrane was interrupted in invasive tumor cell to invade adjacent tissue. The cell culture plate was scratched by a sterile tip or cotton thread to create an acellular space. The cell lines were treated with different treatments, and then the cell number inside the membrane was counted.

As for `O=c1[nH]cc(F)c(=O)[nH]1` [5-FU], in the experiment on HUVEC cells [1], the cell tubeformation result is “did inhibit”. For the same molecule, the cell migration result with HUVEC cells [2] was “did inhibit”. Also, the “cancer cell migration (migration areas)” value with EA.hy926 cell line [3] was “had the ability of inhibiting cancer cell migration”. Also, the invaded cell number result with EA.hy926 cell line [4] is listed as “significantly decreased”.
